Literature values, collected in patent US20250195440A1, “PHARMACEUTICAL FORMULATION COMPRISING GLUCOKINASE ACTIVATOR AND USE THEREOF” (Hua Medicine USA Inc., priority 2023, published 2025).

What was measured:
[1] = system: esterase enzymes in gastrointestinal tract; conditions: with esterase enzymes in gastrointestinal tract
[2] = system: glucose-stimulated GLP-1 secretion; conditions: patients with type II diabetes and obesity; Dorzagliatin alone

Conversion into active Dorzagliatin [1] | SMILES | Impaired glucose-stimulated GLP-1 secretion [2]
quickly and completely converted | CC(C)C[C@@H](C(=O)Nc1ccn(C[C@@H](O)COC(=O)c2cccnc2)n1)N1CC(Oc2ccccc2Cl)=CC1=O [compound of formula (I)] | 
 | CC(C)C[C@@H](C(=O)Nc1ccn(C[C@@H](O)CO)n1)N1CC(Oc2ccccc2Cl)=CC1=O [Dorzagliatin, (S)-2-[4-(2-chloro-phenoxy)-2-oxo-2,5-dihydro-pyrrol-1-yl]-4-methyl-pentanoic acid [1-((R)-2,3-dihydroxy-propyl)-1H-pyrazol-3-yl]-amide] | improved
